Consider 1 compound from ChEMBL document CHEMBL6103638, “Dual Modulator of FXR and HSD17B13: Revitalizing FXR Therapies in MASH” (J Med Chem, 2025).

What is called EC50 is the concentration at which the effect is half-maximal. High values mean weaker potency, low ones greater potency.

The assay has as its target T1, Bile acid receptor (Homo sapiens, UniProt Q96RI1).
T1 sequence (Q96RI1 whole entry): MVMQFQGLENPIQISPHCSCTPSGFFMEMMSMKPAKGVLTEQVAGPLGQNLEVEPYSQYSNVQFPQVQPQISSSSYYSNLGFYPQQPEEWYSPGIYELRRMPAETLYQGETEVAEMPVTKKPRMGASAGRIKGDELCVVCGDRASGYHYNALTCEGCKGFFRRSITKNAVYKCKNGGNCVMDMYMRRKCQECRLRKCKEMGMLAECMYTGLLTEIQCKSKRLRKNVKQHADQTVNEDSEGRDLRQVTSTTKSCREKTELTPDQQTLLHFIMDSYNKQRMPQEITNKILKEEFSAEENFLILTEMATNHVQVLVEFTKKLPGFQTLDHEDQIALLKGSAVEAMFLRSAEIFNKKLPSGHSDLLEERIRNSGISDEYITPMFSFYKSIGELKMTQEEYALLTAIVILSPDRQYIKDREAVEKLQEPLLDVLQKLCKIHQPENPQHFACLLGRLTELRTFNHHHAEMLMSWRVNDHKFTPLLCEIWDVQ
The assay can be described thus: Agonist activity at FXR (unknown origin).

Take `CC(C)(C)c1ccc(-n2cnc3c(NC(=O)Cc4ccc(C(=O)O)cc4)cccc32)cc1`: the EC50 stood at 0.78 µM.
